These results are taken from patent US9708312B2, “Dihydropyrimidinoisoquinolinones and pharmaceutical compositions thereof for the treatment of inflammatory disorders (GPR84 antagonists)” (GALAPAGOS NV, priority 2012, dated 2017).

Structures are written as SMILES. pIC50: −log10 of the molar value.

The target of this assay is T1, GPR84 (Homo sapiens, UniProt Q9NQS5).
T1 construct: expressed in transfected cells
In words: GPR84 [35S]GTPγS binding assay, HEPES buffer. It is filed as biochemical. To be noted: 3,3′ di indolylmethane at EC80, membranes from stable cell line over expressing GPR84. The essentials:
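Membranes from a stable GPR84-overexpressing cell line (20 μg/well), pre-incubated with 0.1 μM GDP for 15 min at 4° C, mixed with 0.1 nM [35S]GTPγS and WGA SpA beads in 20 mM HEPES pH 7.4, 5 mM MgCl2, 250 mM NaCl, 0.05% BSA, 75 ug/mL saponin. Incubated 90 min at room temperature; scintillation proximity read after centrifugation.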
For orientation: GTPγS is a poorly hydrolysed GTP analogue; its binding reports G protein activation.

T1 sequence (Q9NQS5 whole entry): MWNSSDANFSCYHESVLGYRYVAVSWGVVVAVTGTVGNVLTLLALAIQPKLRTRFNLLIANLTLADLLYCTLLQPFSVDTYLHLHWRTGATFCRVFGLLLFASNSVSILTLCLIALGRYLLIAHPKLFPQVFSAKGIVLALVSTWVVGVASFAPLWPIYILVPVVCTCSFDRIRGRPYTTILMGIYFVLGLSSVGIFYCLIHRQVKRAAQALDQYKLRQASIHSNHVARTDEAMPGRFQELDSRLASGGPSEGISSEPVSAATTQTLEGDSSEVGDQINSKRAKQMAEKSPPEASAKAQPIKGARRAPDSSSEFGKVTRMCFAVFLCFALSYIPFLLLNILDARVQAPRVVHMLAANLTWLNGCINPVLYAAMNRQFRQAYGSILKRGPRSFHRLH

With `CC(C)(Oc1ccc2c(c1)CCn1c-2cc(OCC2COc3ccccc3O2)nc1=O)C(N)=O` (stereo not shown) [compound 49, 2-[2-(2,3-dihydro-benzo[1,4]dioxin-2-ylmethoxy)-4-oxo-6,7-dihydro-4H-pyrimido[6,1-a]isoquinolin-9-yloxy]-2-methyl-propionamide], the pIC50 (in general, the negative decadic logarithm of the IC50, by convention in mol/L) is 7.00 to 11.00. In turn, `O=c1nc(OCC2CCCO2)cc2n1CCc1cc(OCC3CCCO3)ccc1-2` (stereo not shown) [compound 52, 2,9-bis-(tetrahydro-furan-2-ylmethoxy)-6,7-dihydro-pyrimido[6,1-a]isoquinolin-4-one] gave a pIC50 of 6.00 to 6.30.

In the case of `O=c1nc(OCC2COc3ccccc3O2)cc2n1CCc1cc(OCc3ncco3)ccc1-2` (stereo not shown) [compound 73, 2-(2,3-dihydro-benzo[1,4]dioxin-2-ylmethoxy)-9-(oxazol-2-ylmethoxy)-6,7-dihydro-pyrimido[6,1-a]isoquinolin-4-one], the pIC50 is 6.30 to 7.00. `COC(=O)c1ccc(COc2ccc3c(c2)CCn2c-3cc(OCC3CCCO3)nc2=O)cc1` (stereo not shown) [compound 26, 4-[4-oxo-2-(tetrahydro-furan-2-ylmethoxy)-6,7-dihydro-4H-pyrimido[6,1-a]isoquinolin-9-yloxymethyl]-benzoic acid methyl ester] showed a pIC50 of 6.30 to 7.00. The figure for `CC(C)c1nc(COc2ccc3c(c2)CCn2c-3cc(OCC3COc4ncccc4O3)nc2=O)no1` (stereo not shown) [compound 157, 2-(2,3-dihydro-[1,4]dioxino[2,3-b]pyridin-2-ylmethoxy)-9-(5-isopropyl-[1,2,4]oxadiazol-3-ylmethoxy)-6,7-dihydro-pyrimido[6,1-a]isoquinolin-4-one] is 7.00 to 11.00; for `NC(=O)NCC#Cc1ccc2c(c1)CCn1c-2cc(OCC2COc3ncccc3O2)nc1=O` (stereo not shown) [compound 175, {3-[2-(2,3-Dihydro-[1,4]dioxino[2,3-b]pyridin-2-ylmethoxy)-4-oxo-6,7-dihydro-4H-pyrimido[6,1-a]isoquinolin-9-yl]-prop-2-ynyl}-urea] it is 7.00 to 11.00. The compound `CC(O)(C#Cc1ccc2c(c1)CCn1c-2cc(OCC2COc3ncccc3O2)nc1=O)c1ccccc1` (stereo not shown) [compound 187, 2-(2,3-Dihydro-[1,4]dioxino[2,3-b]pyridin-2-ylmethoxy)-9-(3-hydroxy-3-phenyl-but-1-ynyl)-6,7-dihydro-pyrimido[6,1-a]isoquinolin-4-one] had a pIC50 of 7.00 to 11.00.

The compound `O=c1nc(OCC2COc3ncccc3O2)cc2n1CCc1cc(-c3ccncc3)ccc1-2` (stereo not shown) [compound 97, 2-(2,3-dihydro-[1,4]dioxino[2,3-b]pyridin-2-ylmethoxy)-9-pyridin-4-yl-6,7-dihydro-pyrimido[6,1-a]isoquinolin-4-one] gave a pIC50 of 7.00 to 11.00. The figure for `O=c1nc(OCC2CCCO2)cc2n1CCc1cc(OCc3ccc(F)cc3)ccc1-2` (stereo not shown) [compound 24, 9-(4-fluoro-benzyloxy)-2-(tetrahydro-furan-2-ylmethoxy)-6,7-dihydro-pyrimido[6,1-a]isoquinolin-4-one] is 6.30 to 7.00.

The compound `NC(=O)c1ccc(-c2ccc3c(c2)CCn2c-3cc(OCC3CCCO3)nc2=O)cc1` (stereo not shown) [compound 106, 4-[4-oxo-2-(tetrahydro-furan-2-ylmethoxy)-6,7-dihydro-4H-pyrimido[6,1-a]isoquinolin-9-yl]-benzamide] gave a pIC50 of 6.30 to 7.00. As for `N#CCOc1ccc2c(c1)CCn1c-2cc(OCC2COc3ccccc3O2)nc1=O` (stereo not shown) [compound 72, [2-(2,3-dihydro-benzo[1,4]dioxin-2-ylmethoxy)-4-oxo-6,7-dihydro-4H-pyrimido[6,1-a]isoquinolin-9-yloxy]-acetonitrile], the figure is 7.00 to 11.00. On to `O=c1nc(OCC2CCCO2)cc2n1CCc1cc(-c3ccccc3)ccc1-2` (stereo not shown) [compound 96, 9-phenyl-2-(tetrahydro-furan-2-ylmethoxy)-6,7-dihydro-pyrimido[6,1-a]isoquinolin-4-one], for which the pIC50 was 6.30 to 7.00. The figure for `N#CCCOCC#Cc1ccc2c(c1)CCn1c-2cc(OCC2COc3ncccc3O2)nc1=O` (stereo not shown) [compound 170, 3-{3-[2-(2,3-dihydro-[1,4]dioxino[2,3-b]pyridin-2-ylmethoxy)-4-oxo-6,7-dihydro-4H-pyrimido[6,1-a]isoquinolin-9-yl]-prop-2-ynyloxy}-propionitrile] is 7.00 to 11.00; for `O=c1nc(OCC2COc3ncccc3O2)cc2n1CCc1cc(C#CCNc3ccccc3)ccc1-2` (stereo not shown) [compound 194, 2-(2,3-dihydro-[1,4]dioxino[2,3-b]pyridin-2-ylmethoxy)-9-(3-phenylamino-prop-1-ynyl)-6,7-dihydro-pyrimido[6,1-a]isoquinolin-4-one] it is 7.00 to 11.00. `CN(CC#Cc1ccc2c(c1)CCn1c-2cc(OCC2COc3ncccc3O2)nc1=O)Cc1ccccc1` (stereo not shown) [compound 173, 9-[3-(benzyl-methyl-amino)-prop-1-ynyl]-2-(2,3-dihydro-[1,4]dioxino[2,3-b]pyridin-2-ylmethoxy)-6,7-dihydro-pyrimido[6,1-a]isoquinolin-4-one] had a pIC50 of 6.30 to 7.00. Take `O=c1nc(OCC2COc3ccccc3O2)cc2n1CCc1cc(OCCN3CCCCC3)ccc1-2` (stereo not shown) [compound 80, 2-(2,3-dihydro-benzo[1,4]dioxin-2-ylmethoxy)-9-(2-piperidin-1-yl-ethoxy)-6,7-dihydro-pyrimido[6,1-a]isoquinolin-4-one]: the pIC50 was 6.30 to 7.00. The figure for `CN(C)c1ccc(-c2ccc3c(c2)CCn2c-3cc(OCC3CCCO3)nc2=O)cc1` (stereo not shown) [compound 105, 9-(4-dimethylamino-phenyl)-2-(tetrahydro-furan-2-ylmethoxy)-6,7-dihydro-pyrimido[6,1-a]isoquinolin-4-one] is 6.30 to 7.00; for `COc1ccc(OC)c(-c2ccc3c(c2)CCn2c-3cc(OCC3COc4ncccc4O3)nc2=O)c1` (stereo not shown) [compound 168, 2-(2,3-dihydro-[1,4]dioxino[2,3-b]pyridin-2-ylmethoxy)-9-(2,5-dimethoxy-phenyl)-6,7-dihydro-pyrimido[6,1-a]isoquinolin-4-one] it is 7.00 to 11.00; for `N#Cc1ccc2c(c1)CCn1c-2cc(OCC2COc3ncccc3O2)nc1=O` (stereo not shown) [compound 152, 2-(2,3-dihydro-[1,4]dioxino[2,3-b]pyridin-2-ylmethoxy)-4-oxo-6,7-dihydro-4H-pyrimido[6,1-a]isoquinoline-9-carbonitrile] it is 6.30 to 7.00. The figure for `COc1nccc(-c2ccc3c(c2)CCn2c-3cc(OCC3COc4ncccc4O3)nc2=O)c1Cl` (stereo not shown) [compound 160, 9-(3-chloro-2-methoxy-pyridin-4-yl)-2-(2,3-dihydro-[1,4]dioxino[2,3-b]pyridin-2-ylmethoxy)-6,7-dihydro-pyrimido[6,1-a]isoquinolin-4-one] is 7.00 to 11.00; for `CN(C)CCCOc1ccc2c(c1)CCn1c-2cc(OCC2COc3ccccc3O2)nc1=O` (stereo not shown) [compound 82, 2-(2,3-Dihydro-benzo[1,4]dioxin-2-ylmethoxy)-9-(3-dimethylamino-propoxy)-6,7-dihydro-pyrimido[6,1-a]isoquinolin-4-one] it is 6.00 to 6.30; for `N#Cc1cccc(-c2ccc3c(c2)CCn2c-3cc(OCC3COc4ncccc4O3)nc2=O)c1` (stereo not shown) [compound 98, 3-[2-(2,3-dihydro-[1,4]dioxino[2,3-b]pyridin-2-ylmethoxy)-4-oxo-6,7-dihydro-4H-pyrimido[6,1-a]isoquinolin-9-yl]-benzonitrile] it is 7.00 to 11.00. Consider `O=c1nc(OCC2COc3ccccc3O2)cc2n1CCc1cc(OCc3ccccn3)ccc1-2` (stereo not shown) [compound 28, 2-(2,3-dihydro-benzo[1,4]dioxin-2-ylmethoxy)-9-(pyridin-2-ylmethoxy)-6,7-dihydro-pyrimido[6,1-a]isoquinolin-4-one], for which the pIC50 is 7.00 to 11.00. The figure for `O=c1nc(OCC2CCCO2)cc2n1CCc1cc(OCc3ncco3)ccc1-2` (stereo not shown) [compound 65, 9-(oxazol-2-ylmethoxy)-2-(tetrahydro-furan-2-ylmethoxy)-6,7-dihydro-pyrimido[6,1-a]isoquinolin-4-one] is 6.00 to 6.30. As for `CN1CCCC1CCOc1ccc2c(c1)CCn1c-2cc(OCC2COc3ncccc3O2)nc1=O` (stereo not shown) [compound 92, 2-(2,3-dihydro-[1,4]dioxino[2,3-b]pyridin-2-ylmethoxy)-9-[2-(1-methyl-pyrrolidin-2-yl)-ethoxy]-6,7-dihydro-pyrimido[6,1-a]isoquinolin-4-one], the figure is 6.30 to 7.00; as for `COc1ccccc1-c1ccc2c(c1)CCn1c-2cc(OCC2CCCO2)nc1=O` (stereo not shown) [compound 99, 9-(2-methoxy-phenyl)-2-(tetrahydro-furan-2-ylmethoxy)-6,7-dihydro-pyrimido[6,1-a]isoquinolin-4-one], 6.30 to 7.00. The figure for `CCNC1(C#Cc2ccc3c(c2)CCn2c-3cc(OCC3COc4ncccc4O3)nc2=O)COC1` (stereo not shown) [compound 201, 2-(2,3-dihydro-[1,4]dioxino[2,3-b]pyridin-2-ylmethoxy)-9-(3-ethylamino-oxetan-3-ylethynyl)-6,7-dihydro-pyrimido[6,1-a]isoquinolin-4-one] is 6.30 to 7.00. `O=c1nc(OCC2CCCO2)cc2n1CCc1cc(OCCOc3ccccc3Cl)ccc1-2` (stereo not shown) [compound 43, 9-[2-(2-chloro-phenoxy)-ethoxy]-2-(tetrahydro-furan-2-ylmethoxy)-6,7-dihydro-pyrimido[6,1-a]isoquinolin-4-one]: the pIC50 was 7.00 to 11.00.

As for `CNC(=O)c1ccc(-c2ccc3c(c2)CCn2c-3cc(OCC3COc4ncccc4O3)nc2=O)cn1` (stereo not shown) [compound 147, 5-[2-(2,3-dihydro-[1,4]dioxino[2,3-b]pyridin-2-ylmethoxy)-4-oxo-6,7-dihydro-4H-pyrimido[6,1-a]isoquinolin-9-yl]-pyridine-2-carboxylic acid methylamide], the pIC50 was 7.00 to 11.00. As for `Cc1ccc(COc2ccc3c(c2)CCn2c-3cc(OCC3CCCO3)nc2=O)cc1` (stereo not shown) [compound 35, 9-(4-methyl-benzyloxy)-2-(tetrahydro-furan-2-ylmethoxy)-6,7-dihydro-pyrimido[6,1-a]isoquinolin-4-one], the figure is 7.00 to 11.00; as for `CC(C)C1CC(COc2cc3n(c(=O)n2)CCc2cc(C#CC4CC4)ccc2-3)O1` (stereo not shown) [compound 203, 9-cyclopropylethynyl-2-(4-isopropyl-oxetan-2-ylmethoxy)-6,7-dihydro-pyrimido[6,1-a]isoquinolin-4-one], 6.00 to 6.30.
